Source: patent publication US10570184B2, “GLP-1/glucagon receptor co-agonists for medical use” (Novo Nordisk A/S, priority 2014, dated 2020)
Starred links: 1 amine or outer side, 2 acyl side, 3 side chain; linkers in the order of their positions; H or OH if unused. Non-standard residues stand in square brackets, D forms with d. Residues, ends and D or L forms follow the SMILES beside them. Groups on a side chain read outwards from the residue. *: point of attachment. C18 diacid = O=C(O)CCCCCCCCCCCCCCCCC(=O)*; γGlu = O=C(O)[C@H](CCC(=O)[*:2])N[*:1]; AEEA = NCCOCCOCC(=O)O; Aib = CC(C)(N)C(=O)O

Experiments:
[1] = Assay (III) ThT fibrillation assay for physical stability; type: physicochemical; conditions: 250 μM in 10 mM HEPES buffer, 37° C., shaking 960 rpm
Summary of the method: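 Glucagon derivative at 250 μM in 10 mM HEPES pH 7.5 with 1 μM ThT was incubated at 37 °C under 960 rpm orbital shaking. Fluorescence (ex 444/em 485 nm) was read every 20 min and fitted for lag time (t0−2τ) and kapp (1/τ). Recovery was soluble peptide after centrifugation/filtration, by RP-HPLC, as percent of initial.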

human GLP-1 receptor = target: T1, human GLP-1 receptor (Homo sapiens, UniProt P43220); experiment: Assay (I)(a) GLP-1 receptor activation, CRE luciferase reporter gene assay in BHK cells; type: cell-based; conditions: without presence of serum albumin; read-out: GLP-1R EC50 (pM) [Assay (I)(a)]
T1 construct: expressed in transfected cells; host or cells: membranes of BHK cells (parent BHKTS13), clone FCW467-12A
Summary of the method: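 Stable BHK clone expressing human GLP-1 receptor with CRE-driven firefly luciferase, 5×10EE3 cells/well in medium with 2% ovalbumin and 0.2% Pluronic F-68. Compounds at 1×10EE-13 to 1×10EE-6 M final, 3 h at 37° C.; luminescence read, EC50 (pM) from four-parameter fit.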

T1 sequence (P43220 24-463): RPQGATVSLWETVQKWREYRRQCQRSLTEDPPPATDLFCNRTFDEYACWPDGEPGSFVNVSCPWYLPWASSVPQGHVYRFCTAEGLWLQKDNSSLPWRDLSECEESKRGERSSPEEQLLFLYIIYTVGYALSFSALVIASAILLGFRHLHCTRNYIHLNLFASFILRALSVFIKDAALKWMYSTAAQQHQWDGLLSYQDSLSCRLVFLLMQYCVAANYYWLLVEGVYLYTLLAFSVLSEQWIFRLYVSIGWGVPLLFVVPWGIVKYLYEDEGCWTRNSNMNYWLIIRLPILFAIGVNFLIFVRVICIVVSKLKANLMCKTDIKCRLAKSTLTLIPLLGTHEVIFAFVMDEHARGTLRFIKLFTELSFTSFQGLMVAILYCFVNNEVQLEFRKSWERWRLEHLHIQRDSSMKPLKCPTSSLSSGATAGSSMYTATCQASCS

Row | ThT Assay Lag time (h) [Assay (III), pH 7.5] [1] [h] | EC50 (human GLP-1 receptor) [pM] | SMILES
1 | 23.0 | 2 | CC[C@H](C)[C@H](NC(=O)[C@H](CC(C)C)NC(=O)[C@H](Cc1c[nH]c2ccccc12)NC(=O)[C@H](CCC(N)=O)NC(=O)[C@@H](NC(=O)[C@H](Cc1ccccc1)NC(=O)[C@H](CCC(=O)O)NC(=O)[C@H](CCCNC(=N)N)NC(=O)[C@H](C)NC(=O)[C@H](CCCNC(=N)N)NC(=O)[C@H](CCCNC(=N)N)NC(=O)[C@H](CO)NC(=O)[C@H](CCC(=O)O)NC(=O)[C@H](CC(C)C)NC(=O)[C@H](Cc1ccc(O)cc1)NC(=O)[C@H](CCCCN)NC(=O)[C@H](CO)NC(=O)[C@H](CC(C)C)NC(=O)[C@H](CC(=O)O)NC(=O)[C@H](CO)NC(=O)[C@@H](NC(=O)[C@H](Cc1ccccc1)NC(=O)[C@@H](NC(=O)CNC(=O)[C@H](CCC(N)=O)NC(=O)C(C)(C)NC(=O)[C@@H](N)Cc1c[nH]cn1)[C@@H](C)O)[C@@H](C)O)C(C)C)C(=O)N[C@@H](CCCCNC(=O)CC[C@H](NC(=O)CC[C@H](NC(=O)COCCOCCNC(=O)COCCOCCNC(=O)CC[C@H](NC(=O)CC[C@H](NC(=O)CCCCCCCCCCCCCCCCC(=O)O)C(=O)O)C(=O)O)C(=O)O)C(=O)O)C(=O)N[C@H](C(N)=O)[C@@H](C)O [Chem. 25, N^ε28-[(4S)-4-carboxy-4-[[(4S)-4-carboxy-4-[[2-[2-[2-[[2-[2-[2-[[(4S)-4-carboxy-4-[[(4S)-4-carboxy-4-(17-carboxyheptadecanoylamino)butanoyl]amino]butanoyl]amino]ethoxy]ethoxy]acetyl]amino]ethoxy]ethoxy]acetyl]amino]butanoyl]amino]butanoyl]-[Aib2,Leu10,Glu15,Arg20,Glu21,Ile27,Lys28]-Glucagon amide] (H-H[Aib]QGTFTSDLSKYLESRRAREFVQWLIK([γGlu-γGlu-AEEA-AEEA-γGlu-γGlu-C18 diacid])T-NH2; N-terminus assumed)
2 | 6.3 | 4 | CC[C@H](C)[C@H](NC(=O)[C@H](CC(C)C)NC(=O)[C@H](Cc1c[nH]c2ccccc12)NC(=O)[C@H](CCC(N)=O)NC(=O)[C@@H](NC(=O)[C@H](Cc1ccccc1)NC(=O)[C@H](CC(=O)O)NC(=O)[C@H](CCCNC(=N)N)NC(=O)[C@H](C)NC(=O)[C@H](CCCNC(=N)N)NC(=O)[C@H](CCCNC(=N)N)NC(=O)[C@H](CO)NC(=O)[C@H](CCC(=O)O)NC(=O)[C@H](CC(C)C)NC(=O)[C@H](Cc1ccc(O)cc1)NC(=O)[C@H](CCCNC(=N)N)NC(=O)[C@H](CO)NC(=O)[C@H](Cc1ccc(O)cc1)NC(=O)[C@H](CC(=O)O)NC(=O)[C@H](CO)NC(=O)[C@@H](NC(=O)[C@H](Cc1ccccc1)NC(=O)[C@@H](NC(=O)CNC(=O)[C@H](CCC(N)=O)NC(=O)C(C)(C)NC(=O)[C@@H](N)Cc1c[nH]cn1)[C@@H](C)O)[C@@H](C)O)C(C)C)C(=O)N[C@@H](CCCCNC(=O)CC[C@H](NC(=O)COCCOCCNC(=O)CC[C@H](NC(=O)COCCOCCNC(=O)CC[C@H](NC(=O)COCCOCCNC(=O)CC[C@H](NC(=O)CC[C@H](NC(=O)CCCCCCCCCCCCCCCCC(=O)O)C(=O)O)C(=O)O)C(=O)O)C(=O)O)C(=O)O)C(=O)N[C@H](C(N)=O)[C@@H](C)O [Chem. 37, N^28-[(4S)-4-carboxy-4-[[2-[2-[2-[[(4S)-4-carboxy-4-[[2-[2-[2-[[(4S)-4-carboxy-4-[[2-[2-[2-[[(4S)-4-carboxy-4-[[(4S)-4-carboxy-4-(17-carboxyheptadecanoylamino)butanoyl]amino]butanoyl]amino]ethoxy]ethoxy]acetyl]amino]butanoyl]amino]ethoxy]ethoxy]acetyl]amino]butanoyl]amino]ethoxy]ethoxy]acetyl]amino]butanoyl]-[Aib2,Arg12,Glu15,Arg20,Ile27,Lys28]-Glucagon amide] (H-H[Aib]QGTFTSDYSRYLESRRARDFVQWLIK([γGlu-AEEA-γGlu-AEEA-γGlu-AEEA-γGlu-γGlu-C18 diacid])T-NH2; N-terminus assumed)
3 | 45.0 | 2 | CC[C@H](C)[C@H](NC(=O)[C@H](CC(C)C)NC(=O)[C@H](Cc1c[nH]c2ccccc12)NC(=O)[C@H](C)NC(=O)[C@@H](NC(=O)[C@H](Cc1ccccc1)NC(=O)[C@H](CC(=O)O)NC(=O)[C@H](CCCNC(=N)N)NC(=O)[C@H](C)NC(=O)[C@H](CCCNC(=N)N)NC(=O)[C@H](CCCNC(=N)N)NC(=O)[C@H](C)NC(=O)[C@H](CC(=O)O)NC(=O)[C@H](CC(C)C)NC(=O)[C@H](Cc1ccc(O)cc1)NC(=O)[C@H](CCCCN)NC(=O)[C@H](CO)NC(=O)[C@H](Cc1ccc(O)cc1)NC(=O)[C@H](CC(=O)O)NC(=O)[C@H](CO)NC(=O)[C@@H](NC(=O)[C@H](Cc1ccccc1)NC(=O)[C@@H](NC(=O)CNC(=O)[C@H](CCC(N)=O)NC(=O)C(C)(C)NC(=O)[C@@H](N)Cc1c[nH]cn1)[C@@H](C)O)[C@@H](C)O)C(C)C)C(=O)N[C@@H](CCCCNC(=O)CC[C@H](NC(=O)CC[C@H](NC(=O)COCCOCCNC(=O)COCCOCCNC(=O)CC[C@H](NC(=O)CCCCCCCCCCCCCCCCC(=O)O)C(=O)O)C(=O)O)C(=O)O)C(=O)N[C@H](C(N)=O)[C@@H](C)O [Chem. 32, N^ε28-[(4S)-4-carboxy-4-[[(4S)-4-carboxy-4-[[2-[2-[2-[[2-[2-[2-[[(4S)-4-carboxy-4-(17-carboxyheptadecanoylamino)butanoyl]amino]ethoxy]ethoxy]acetyl]amino]ethoxy]ethoxy]acetyl]amino]butanoyl]amino]butanoyl]-[Aib2,Ala16,Arg20,Ala24,Ile27,Lys28]-Glucagon amide] (H-H[Aib]QGTFTSDYSKYLDARRARDFVAWLIK([γGlu-γGlu-AEEA-AEEA-γGlu-C18 diacid])T-NH2)
